The source of these data is patent US20190167593A1, “C[…] PHARMACEUTICALLY ACCEPTABLE SALT THEREOF, AND APPLICATION OF SAME” (priority 2016, published 2019).

Converted amounts (≈) assume the structure as drawn. Like-named read-outs stand apart in the source and are kept apart here.

One series relates to influenza virus PR8. Conditions: mouse, in vivo.
The test system of series [1] is A/Puerto Rico/8/34 (H1N1) (PR8). The series can be described thus: organism not typed. Conditions: MDCK cells, crystal violet staining, 3 days, read-out: IC50 against influenza virus replication (plaque formation), PR8. The series is classed as cell-based.
The nature of series [2]: physchem. In kind it is physicochemical. The note with it: molar ratio compound:acid as listed per salt.
Series [3] can be described thus: physchem. The note with it: Non-lactic acid. The series is classed as physicochemical.

In general, IC50 refers to the concentration that inhibits the measured activity by half. As for `CCOC(=O)C1=C[C@@H](OC(CC)CC)[C@H](NC(C)=O)[C@@H](N)C1.O=P(O)(O)O` [Oseltamivir phosphate, ethyl (3R, 4R, 5S)-4-acetamido-5-amino-3-(1-ethylpropoxy)-1-cyclohexene-1-carboxylate phosphate], in the series on influenza virus PR8, the disease symptoms entry is “obvious disease symptoms”. Further, the IC50 came out at 133 nM in series [1] (phosphate) and 130 nM in series [1] (MDCK, 72 h).

One may read the solubility as the concentration that dissolves in the medium under given conditions. Take `CCCCS(=O)(=O)N[C@@H]1CCCN([C@@H]2C=C(C(=O)O)C[C@H](NC(=N)N)[C@H]2NC(C)=O)C1` [(3R,4R,5S)-4-acetamido-5-guanidino-3-((3R)-3-n-butylsulfonamidopiperidin)-1-cyclohexene-1-carboxylic acid]: the body weight result with influenza virus PR8 is recorded as “slightly decreased”. Besides, the IC50 in series [1] (listed as COMPOUND TO BE TESTED OF FORMULA I) was determined as 252 nM; in series [1] (MDCK, 72 h), 250 nM. The “PH VALUE OF THE SOLUTION” value in “physchem [2]” is recorded as 7.8. For the same molecule, the solubility came out at 2500 µg/mL in “physchem [2]” (water, unit printed in b135 only) and 2500 µg/mL (≈ 5.45 mM) in the series “physchem [3]” (pH 7.8). In the series “physchem [3]”, the “pH VALUE” is 7.8.

Consider Peramivir, for which the IC50 in series [1] came to 17.6 nM.
